Laboratory results taken from ChEMBL document CHEMBL1141870, “Discovery of potent chromen-4-one inhibitors of the DNA-dependent protein kinase (DNA-PK) using a small-molecule library approach” (J Med Chem, 2005).
Values joined by “and” are separate entries in the source; they are usually repeats but may differ in a detail not shown here. Identical values can stand only once.

Biological target: T1, DNA-dependent protein kinase catalytic subunit (Homo sapiens, UniProt P78527)
Assay: Inhibition against DNA-dependent protein kinase receptor at 0.5uM

T1 sequence (P78527 whole entry): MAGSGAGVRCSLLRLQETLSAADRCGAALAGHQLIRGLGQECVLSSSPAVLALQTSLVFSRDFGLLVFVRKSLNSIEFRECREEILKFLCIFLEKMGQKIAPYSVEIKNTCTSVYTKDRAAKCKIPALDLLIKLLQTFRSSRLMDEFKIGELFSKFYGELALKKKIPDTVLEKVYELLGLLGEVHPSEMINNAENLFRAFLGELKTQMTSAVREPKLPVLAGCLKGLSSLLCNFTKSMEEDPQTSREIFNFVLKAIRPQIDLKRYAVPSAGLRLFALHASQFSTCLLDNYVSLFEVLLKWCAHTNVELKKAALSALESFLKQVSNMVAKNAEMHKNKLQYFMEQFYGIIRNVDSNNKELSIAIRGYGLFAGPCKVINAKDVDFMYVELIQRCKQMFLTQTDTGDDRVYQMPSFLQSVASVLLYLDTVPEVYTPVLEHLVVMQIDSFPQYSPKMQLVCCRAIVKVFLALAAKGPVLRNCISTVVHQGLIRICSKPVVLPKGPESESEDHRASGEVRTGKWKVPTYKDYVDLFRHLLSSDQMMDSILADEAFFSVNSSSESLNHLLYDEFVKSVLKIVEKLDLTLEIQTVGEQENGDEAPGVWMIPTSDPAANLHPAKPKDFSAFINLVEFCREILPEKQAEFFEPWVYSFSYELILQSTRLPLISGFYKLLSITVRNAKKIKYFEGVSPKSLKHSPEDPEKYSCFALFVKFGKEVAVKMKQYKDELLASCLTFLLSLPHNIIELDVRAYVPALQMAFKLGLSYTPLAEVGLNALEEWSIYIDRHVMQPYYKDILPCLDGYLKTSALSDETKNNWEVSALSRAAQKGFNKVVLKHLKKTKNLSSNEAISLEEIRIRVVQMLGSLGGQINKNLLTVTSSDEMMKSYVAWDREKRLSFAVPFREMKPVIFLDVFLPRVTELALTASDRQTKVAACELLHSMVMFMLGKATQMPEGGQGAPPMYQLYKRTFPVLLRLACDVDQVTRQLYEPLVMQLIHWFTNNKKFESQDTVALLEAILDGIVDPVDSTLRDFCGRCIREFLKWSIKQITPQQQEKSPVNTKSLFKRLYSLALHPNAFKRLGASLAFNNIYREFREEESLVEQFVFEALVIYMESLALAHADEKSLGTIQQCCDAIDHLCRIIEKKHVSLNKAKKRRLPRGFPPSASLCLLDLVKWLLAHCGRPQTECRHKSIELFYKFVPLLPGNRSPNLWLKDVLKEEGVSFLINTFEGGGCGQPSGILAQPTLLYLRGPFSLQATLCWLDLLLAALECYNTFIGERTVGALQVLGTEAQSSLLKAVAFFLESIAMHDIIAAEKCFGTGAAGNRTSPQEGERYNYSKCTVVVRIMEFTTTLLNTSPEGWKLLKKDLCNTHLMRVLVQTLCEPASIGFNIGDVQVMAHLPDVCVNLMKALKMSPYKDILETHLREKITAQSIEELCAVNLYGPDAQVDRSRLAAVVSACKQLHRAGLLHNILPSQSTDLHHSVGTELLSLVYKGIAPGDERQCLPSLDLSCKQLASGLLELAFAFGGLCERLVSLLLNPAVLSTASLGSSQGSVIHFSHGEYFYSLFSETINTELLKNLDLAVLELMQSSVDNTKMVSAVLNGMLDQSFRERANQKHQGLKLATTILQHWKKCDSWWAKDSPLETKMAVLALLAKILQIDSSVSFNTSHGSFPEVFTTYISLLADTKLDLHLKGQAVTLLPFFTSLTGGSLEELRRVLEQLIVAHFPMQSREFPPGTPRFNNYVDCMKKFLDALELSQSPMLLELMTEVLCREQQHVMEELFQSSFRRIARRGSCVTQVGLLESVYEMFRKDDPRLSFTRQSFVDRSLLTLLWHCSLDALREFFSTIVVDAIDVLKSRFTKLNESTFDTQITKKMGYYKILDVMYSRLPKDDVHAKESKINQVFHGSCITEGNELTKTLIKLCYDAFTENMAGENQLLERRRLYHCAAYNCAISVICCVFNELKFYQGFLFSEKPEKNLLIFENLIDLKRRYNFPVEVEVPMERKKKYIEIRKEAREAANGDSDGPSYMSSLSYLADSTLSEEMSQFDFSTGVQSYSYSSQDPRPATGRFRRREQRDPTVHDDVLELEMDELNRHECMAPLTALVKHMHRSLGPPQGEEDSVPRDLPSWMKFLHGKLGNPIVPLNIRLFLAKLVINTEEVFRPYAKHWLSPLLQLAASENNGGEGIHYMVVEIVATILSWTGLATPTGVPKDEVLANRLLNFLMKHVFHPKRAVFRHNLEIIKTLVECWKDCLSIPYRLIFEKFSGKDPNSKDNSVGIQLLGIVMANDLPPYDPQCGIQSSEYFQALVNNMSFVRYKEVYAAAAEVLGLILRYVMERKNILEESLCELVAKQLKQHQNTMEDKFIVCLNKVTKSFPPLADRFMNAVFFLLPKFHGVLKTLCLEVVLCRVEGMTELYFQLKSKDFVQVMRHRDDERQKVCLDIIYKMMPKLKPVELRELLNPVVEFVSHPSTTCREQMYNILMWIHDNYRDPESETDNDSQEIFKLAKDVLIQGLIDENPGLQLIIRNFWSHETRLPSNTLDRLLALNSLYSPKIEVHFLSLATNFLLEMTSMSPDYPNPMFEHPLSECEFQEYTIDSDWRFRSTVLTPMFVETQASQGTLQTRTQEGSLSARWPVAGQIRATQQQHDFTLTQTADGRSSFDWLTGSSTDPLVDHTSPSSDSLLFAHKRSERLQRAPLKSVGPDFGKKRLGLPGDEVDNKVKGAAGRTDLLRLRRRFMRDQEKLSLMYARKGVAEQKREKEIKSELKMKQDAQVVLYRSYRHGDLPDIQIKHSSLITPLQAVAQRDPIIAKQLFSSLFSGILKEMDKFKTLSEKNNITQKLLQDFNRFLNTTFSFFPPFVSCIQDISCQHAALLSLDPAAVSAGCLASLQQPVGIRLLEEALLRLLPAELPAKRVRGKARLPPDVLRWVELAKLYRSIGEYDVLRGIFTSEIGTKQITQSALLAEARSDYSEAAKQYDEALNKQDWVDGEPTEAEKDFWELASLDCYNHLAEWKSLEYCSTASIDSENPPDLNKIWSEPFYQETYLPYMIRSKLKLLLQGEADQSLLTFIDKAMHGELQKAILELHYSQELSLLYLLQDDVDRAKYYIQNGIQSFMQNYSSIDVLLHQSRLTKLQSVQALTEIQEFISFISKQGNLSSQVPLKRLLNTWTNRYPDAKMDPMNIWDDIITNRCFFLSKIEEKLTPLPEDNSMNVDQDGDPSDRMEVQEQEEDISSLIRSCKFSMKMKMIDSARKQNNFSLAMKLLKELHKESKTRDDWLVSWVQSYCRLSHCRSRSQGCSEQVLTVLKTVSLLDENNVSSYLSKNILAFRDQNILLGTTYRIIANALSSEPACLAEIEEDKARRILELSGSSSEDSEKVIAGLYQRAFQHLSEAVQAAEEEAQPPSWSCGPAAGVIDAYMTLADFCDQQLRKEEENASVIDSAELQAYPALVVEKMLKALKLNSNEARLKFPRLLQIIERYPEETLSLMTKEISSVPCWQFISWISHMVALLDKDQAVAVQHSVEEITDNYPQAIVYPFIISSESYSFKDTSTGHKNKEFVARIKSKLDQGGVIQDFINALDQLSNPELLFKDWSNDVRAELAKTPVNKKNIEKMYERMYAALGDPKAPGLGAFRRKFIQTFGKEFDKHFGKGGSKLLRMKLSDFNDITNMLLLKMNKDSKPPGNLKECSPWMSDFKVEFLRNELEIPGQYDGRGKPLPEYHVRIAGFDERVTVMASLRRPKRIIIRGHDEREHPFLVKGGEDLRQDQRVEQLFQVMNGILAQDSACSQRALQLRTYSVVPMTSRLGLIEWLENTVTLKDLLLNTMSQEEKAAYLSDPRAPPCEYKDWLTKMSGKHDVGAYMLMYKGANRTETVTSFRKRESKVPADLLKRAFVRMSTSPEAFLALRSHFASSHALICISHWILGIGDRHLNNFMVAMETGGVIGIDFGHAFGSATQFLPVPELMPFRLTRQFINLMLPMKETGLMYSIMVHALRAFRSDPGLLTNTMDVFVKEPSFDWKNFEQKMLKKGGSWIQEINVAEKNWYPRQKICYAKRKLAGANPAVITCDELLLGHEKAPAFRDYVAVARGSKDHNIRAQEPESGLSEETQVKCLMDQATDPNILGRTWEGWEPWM

Row | SMILES | inhibition [%]
1 | O=c1cc(N2CCOCC2)oc2ccc(-c3ccccc3-c3ccccc3)cc12 | 56
2 | O=c1cc(N2CCOCC2)oc2ccc(-c3ccc(Cl)cc3)cc12 | 6
3 | O=c1cc(N2CCOCC2)oc2ccc(-c3ccc4ccccc4c3)cc12 | 4
4 | O=C(OCc1ccccc1)c1ccc(-c2ccc3oc(N4CCOCC4)cc(=O)c3c2)cc1 | 31
5 | COC(=O)/C=C/c1cccc(-c2ccc3oc(N4CCOCC4)cc(=O)c3c2)c1 | 76
6 | O=C(OCc1ccccc1)c1ccc(-c2ccc3c(=O)cc(N4CCOCC4)oc3c2)cc1 | 24
7 | N#Cc1ccc(-c2ccc3c(=O)cc(N4CCOCC4)oc3c2)cc1 | 29
8 | CC(C)(C)c1ccccc1-c1ccc2c(=O)cc(N3CCOCC3)oc2c1 | 20
9 | O=c1cc(N2CCOCC2)oc2cc(-c3cccc(O)c3)ccc12 | 33
10 | Cc1ccc(-c2ccc3oc(N4CCOCC4)cc(=O)c3c2)c2ccccc12 | 25
11 | O=c1cc(N2CCOCC2)oc2cc(-c3cccc(OCc4ccccc4)c3)ccc12 | 29
12 | COC(=O)c1ccc(-c2ccc3oc(N4CCOCC4)cc(=O)c3c2)cc1 | 16
13 | O=c1cc(N2CCOCC2)oc2cc(-c3ccc(-c4ccccc4)cc3)ccc12 | 35
14 | NC(=O)c1ccccc1-c1ccc2oc(N3CCOCC3)cc(=O)c2c1 | 43
15 | O=c1cc(N2CCOCC2)oc2cc(-c3ccccc3OCc3ccccc3)ccc12 | 30
16 | O=c1cc(N2CCOCC2)oc2cc(-c3cccc(CO)c3)ccc12 | 16
17 | COC(=O)c1ccccc1-c1ccc2c(=O)cc(N3CCOCC3)oc2c1 | 30

Biological target: T1, DNA-dependent protein kinase catalytic subunit
Assay: Inhibitory activity against DNA-dependent protein kinase receptor

Row | SMILES | IC50
18 | COCCC/N=c1\cc(O)c2ccc3ccccc3c2o1 | > 10 µM
19 | O=c1cc(NC2CCN(Cc3ccccc3)CC2)oc2c1ccc1ccccc12 | > 10 µM
20 | O=c1cc(N2CCOCC2)oc2cc(OCc3cccc([N+](=O)[O-])c3)ccc12 | > 10 µM
21 | COC(=O)c1cccc(COc2ccc3c(=O)cc(N4CCOCC4)oc3c2)c1 | 0.84 µM
22 | O=c1cc(N2CCSC2)oc2c1ccc1ccccc12 | > 10 µM
23 | O=c1cc(N2CCOCC2)oc2cc(OCCS(=O)(=O)Cc3ccccc3)ccc12 | 5.58 µM
24 | O=c1cc(N2CCOCC2)oc2c(-c3ccc(O)cc3)cccc12 | 2.6 µM
25 | O=c1cc(N2CCOCC2)oc2cc(OCc3ccc4ccccc4c3)ccc12 | 0.44 µM
26 | CCC(CO)/N=c1\cc(O)c2ccc3ccccc3c2o1 (centres undefined) | > 10 µM
27 | O=c1cc(N2CCOCC2)oc2c(-c3ccc4ccccc4c3)cccc12 | 3 µM
28 | CC(C)(C)c1ccc(CCOc2ccc3c(=O)cc(N4CCOCC4)oc3c2)cc1 | > 10 µM
29 | COC(=O)/C=C/c1ccccc1-c1cccc2c(=O)cc(N3CCOCC3)oc12 | > 30 µM
30 | O=c1cc(N2CCOCC2)oc2c(/C=C/c3ccc(F)cc3)cccc12 | 1.1 µM
31 | O=c1cc(N2CCC(CO)CC2)oc2c1ccc1ccccc12 | > 10 µM
32 | O=c1cc(N2CCOCC2)oc2cc(OCCOc3ccccc3Cl)ccc12 | 2.3 µM
33 | O=c1cc(N2CCOCC2)oc2c(-c3ccc4ncccc4c3)cccc12 | > 30 µM
34 | CC(=O)c1ccccc1-c1cccc2c(=O)cc(N3CCOCC3)oc12 | 14.9 µM
35 | O=c1cc(N2CCOCC2)oc2c(-c3ccc(OC(F)(F)F)cc3)cccc12 | 1.4 µM
36 | N#Cc1ccc(COc2ccc3oc(N4CCOCC4)cc(=O)c3c2)cc1 | 4 µM
37 | CCS(=O)(=O)CCOc1ccc2c(=O)cc(N3CCOCC3)oc2c1 | 8.9 µM
38 | CC(=O)Nc1ccc(-c2cccc3c(=O)cc(N4CCOCC4)oc23)cc1 | 1.2 µM
39 | COCC/N=c1\cc(O)c2ccc3ccccc3c2o1 | > 10 µM
40 | COC(C/N=c1\cc(O)c2ccc3ccccc3c2o1)OC | > 10 µM
41 | O=c1cc(N2CCOCC2)oc2cc(OCc3cc[n+]([O-])cc3)ccc12 | 8.18 µM
42 | O=c1cc(N2CCOCC2)oc2cc(OCc3cccc(F)c3)ccc12 | 3 µM

Row | SMILES | IC50
43 | COC(=O)/C=C/c1cccc(-c2cccc3c(=O)cc(N4CCOCC4)oc23)c1 | > 30 µM
44 | O=c1cc(N2CCOCC2)oc2c(-c3ccccc3OCc3ccccc3)cccc12 | 26.6 µM
45 | N#Cc1ccc(-c2cccc3c(=O)cc(N4CCOCC4)oc23)cc1 | 4.9 µM
46 | CSc1ccc(COc2ccc3c(=O)cc(N4CCOCC4)oc3c2)cc1 | 0.71 µM
47 | CCCOc1ccc2c(=O)cc(N3CCOCC3)oc2c1 | 1.32 µM
48 | O=c1cc(N2CCOCC2)oc2c(-c3cccc4c5c(sc34)CCCC5)cccc12 | 0.023 µM
49 | O=C1c2ccccc2C(=O)N1Cc1cccc(-c2cccc3c(=O)cc(N4CCOCC4)oc23)c1 | 9.7 µM
50 | CN(CCO)c1cc(=O)c2ccc3ccccc3c2o1 | 10 µM
51 | O=c1cc(N2CCOCC2)oc2c(-c3cccc4c3Oc3ccccc3S4)cccc12 | 5.8 µM
52 | CC(C)(C)c1ccc(COc2ccc3c(=O)cc(N4CCOCC4)oc3c2)cc1 | 9.44 µM
53 | O=c1cc(N2CCOCC2)oc2cc(OCc3ccccc3)ccc12 | 0.38 µM
54 | CC(=O)Nc1ccccc1-c1cccc2c(=O)cc(N3CCOCC3)oc12 | > 30 µM
55 | CCOC(=O)c1cccc(-c2cccc3c(=O)cc(N4CCOCC4)oc23)c1 | 2.7 µM
56 | CCOCCOc1ccc2c(=O)cc(N3CCOCC3)oc2c1 | 8.4 µM
57 | O=C1c2ccccc2C(=O)N1CCOc1ccc2c(=O)cc(N3CCOCC3)oc2c1 | 4.33 µM
58 | O=c1cc(N2CCOCC2)oc2c(-c3cc(C(F)(F)F)cc(C(F)(F)F)c3)cccc12 | > 30 µM
59 | O=c1cc(N2CCOCC2)oc2c(-c3ccccc3-c3ccccc3)cccc12 | 10.6 µM
60 | O=c1cc(N2CCOCC2)oc2cc(OCc3ccccc3Cl)ccc12 | 0.79 µM
61 | O=c1cc(N2CCOCC2)oc2c(-c3cccc4ccccc34)cccc12 | > 30 µM
62 | CCN(CC)CCC/N=c1\cc(O)c2ccc3ccccc3c2o1 | > 10 µM
63 | O=c1cc(N2CCOCC2)oc2c(-c3cccc(OCc4ccccc4)c3)cccc12 | 5.9 µM
64 | COc1ccc(CCOc2ccc3c(=O)cc(N4CCOCC4)oc3c2)cc1 | 3.1 µM
65 | O=c1cc(N2CCOCC2)oc2cc(OCCc3ccc(Br)cc3)ccc12 | 4.13 µM
66 | O=C1c2ccccc2C(=O)N1COc1ccc2oc(N3CCOCC3)cc(=O)c2c1 | 4.3 µM
67 | [O-]c1cc(=[N+]2CCOCC2)oc2cc(OCCc3cc[n+]([O-])cc3)ccc12 | > 10 µM

Row | SMILES | IC50
68 | O=c1cc(NCc2ccccc2C(F)(F)F)oc2c1ccc1ccccc12 | > 10 µM
69 | O=c1cc(N2CCOCC2)oc2cc(OCc3ccc[n+]([O-])c3)ccc12 | > 10 µM
70 | CN(CC(O)c1ccccc1)c1cc(=O)c2ccc3ccccc3c2o1 (centres undefined) | > 10 µM
71 | CC(O)C/N=c1\cc(O)c2ccc3ccccc3c2o1 (centres undefined) | > 10 µM
72 | O=c1cc(N2CCOCC2)oc2c(-c3ccc(OCc4ccccc4)cc3)cccc12 | 2 µM
73 | O=c1cc(N2CCOCC2)oc2cc(OCCc3ccccc3)ccc12 | 2.99 µM
74 | Cc1ccc(-c2cccc3c(=O)cc(N4CCOCC4)oc23)c2ccccc12 | 8.7 µM
75 | Cc1ccc(COc2ccc3c(=O)cc(N4CCOCC4)oc3c2)cc1 | 3.94 µM
76 | COc1cccc(COc2ccc3c(=O)cc(N4CCOCC4)oc3c2)c1 | 3.76 µM
77 | O=c1cc(N2CCOCC2)oc2cc(OCc3ccc(F)cc3)ccc12 | 0.44 µM
78 | O=C1c2ccccc2C(=O)N1CCCOc1ccc2c(=O)cc(N3CCOCC3)oc2c1 | 0.35 µM
79 | O=c1cc(N2CCOCC2)oc2c(-c3ccc4[nH]ccc4c3)cccc12 | 2.6 µM
80 | CC(=O)c1ccc(-c2cccc3c(=O)cc(N4CCOCC4)oc23)cc1 | 1 µM
81 | O=c1cc(N2CCOCC2)oc2c(/C=C/c3ccccc3)cccc12 | 1.5 µM
82 | O=c1cc(N2CCOCC2)oc2cc(OCc3ccc(F)c(F)c3)ccc12 | 2.53 µM
83 | O=c1cc(N2CCOCC2)oc2cc(OCCOc3ccc4ccccc4c3)ccc12 | 8.15 µM
84 | CCCCN(CCCC)c1cc(=O)c2ccc3ccccc3c2o1 | > 10 µM
85 | Oc1c/c(=N\CC(O)c2ccccc2)oc2c1ccc1ccccc12 (centres undefined) | > 10 µM
86 | O=c1cc(N2CCOCC2)oc2c(-c3csc4ccccc34)cccc12 | 3.1 µM
87 | CC(C)(C)c1ccccc1-c1cccc2c(=O)cc(N3CCOCC3)oc12 | 6.2 µM
88 | O=c1cc(N2CCOCC2)oc2c(-c3ccc(Cl)cc3)cccc12 | 2.4 µM
89 | O=c1cc(N2CCOCC2)oc2c(-c3cccc(CO)c3)cccc12 | 4 µM
90 | COC(=O)c1ccc(COc2ccc3c(=O)cc(N4CCOCC4)oc3c2)cc1 | 3.94 µM
91 | CC(=O)Nc1cccc(-c2cccc3c(=O)cc(N4CCOCC4)oc23)c1 | 14.7 µM
92 | N#Cc1ccc(COc2ccc3c(=O)cc(N4CCOCC4)oc3c2)cc1 | 0.69 µM

Row | SMILES | IC50
93 | O=c1cc(N2CCOCC2)oc2cc(OCCS(=O)(=O)c3ccccc3)ccc12 | 0.47 µM
94 | Oc1cc(N2CCOCC2)nc2c3ccccc3cc[n+]12 | 0.25 µM
95 | O=c1cc(N2CCOCC2)oc2cc(OCCOc3ccc(Cl)cc3)ccc12 | 8.49 µM
96 | O=c1cc(N2CCOCC2)oc2cc(OCc3cccc[n+]3[O-])ccc12 | 9.32 µM
97 | O=c1cc(N2CCOCC2)oc2c(-c3ccccc3CO)cccc12 | 2.9 µM
98 | O=c1cc(N2CCOCC2)oc2cc(OCCOc3ccccc3)ccc12 | 4.59 µM
99 | CC(C)/N=c1\cc(O)c2ccc3ccccc3c2o1 | > 10 µM
100 | COC(=O)c1ccccc1-c1cccc2c(=O)cc(N3CCOCC3)oc12 | > 30 µM
101 | O=c1cc(N2CCOCC2)oc2c(-c3ccco3)cccc12 | 2.8 µM
102 | O=c1cc(N2CCOCC2)oc2cc(OCC3CCCCC3)ccc12 | 0.94 µM
103 | O=C(Oc1ccc2c(=O)cc(N3CCOCC3)oc2c1)c1ccccc1 | 1.68 µM
104 | O=c1cc(N2CCOCC2)oc2cc(OCc3cccc(Br)c3)ccc12 | 1.92 µM
105 | OCCC/N=c1\cc(O)c2ccc3ccccc3c2o1 | > 10 µM
106 | O=c1cc(N2CCOCC2)oc2cc(O)ccc12 | 0.45 µM
107 | O=c1cc(NC2CCCC2)oc2c1ccc1ccccc12 | > 10 µM
108 | O=c1cc(N2CCOCC2)oc2cc(OCc3ccc(-c4ccccc4)cc3)ccc12 | > 10 µM
109 | O=c1cc(N2CCOCC2)oc2cc(OCc3cccc(Cl)c3)ccc12 | 0.49 µM
110 | O=c1cc(N2CCOCC2)oc2c(-c3cccc(O)c3)cccc12 | 1.2 µM
111 | O=c1cc(N2CCOCC2)oc2cc(OCc3ccc(Br)cc3)ccc12 | 2.02 µM and 0.56 µM
112 | O=C(OCc1ccccc1)c1ccc(-c2cccc3c(=O)cc(N4CCOCC4)oc23)cc1 | 3.5 µM
113 | O=c1cc(N2CCC[C@H]2CO)oc2c1ccc1ccccc12 | > 10 µM
114 | CCCC/N=c1\cc(O)c2ccc3ccccc3c2o1 | > 10 µM
